# From article PMC6265740, “Biochemical and Anti-Triple Negative Metastatic Breast Tumor Cell Properties of Psammaplins” (Marine Drugs, 2018)
# Experiments:
# VEGF mRNA = assay: Quantitative real time RT-PCR of VEGF mRNA in T47D cells; assay type: cell-based, human; details: 10 μM, 16 h
# Text: Around 100 genes have been identified as HIF-1 target genes that encode proteins involved in various aspects of cellular physiology. While most of these genes are regulated in a cell type-specific manner, some are induced upon HIF-1 activation in most cell types. Based on availability and potency, compound 4 (a stereoisomer of 2) was selected for follow-up studies. The effects of 4 on the expression of HIF-1 target genes cyclin dependent kinase inhibitor 1A (CDKN1A) and vascular endothelial growth factor A (VEGFA) were examined by quantitative real time RT-PCR (Figure 2). The HIF-1 activator 1,10-phen (10 μM) and the pan-HDAC inhibitor TSA (0.1 and 1 μM, respectively) were included as positive controls. In T47D cells, 4 and TSA each increased the levels of CDKN1A mRNA in a concentration-dependent manner (2.9-fold for 4 at 10 μM and 7.2-fold for TSA at 1 μM, Figure 2A). In contrast, neither 4 nor TSA exerted greater than 20% effect on the levels of VEGF mRNA (Figure 2B). […]
# Figure 2 Effects of 4 and trichostatin A (TSA) on HIF-1 target gene expression. […] The levels of cyclin dependent kinase inhibitor 1A (CDKN1A) (A) and vascular endothelial growth factor (VEGF) (B) mRNA following treatments were determined by quantitative real time RT-PCR. […] The levels of cellular (C) and secreted VEGF protein (D) were determined by ELISA and normalized to the amount of cellular proteins. […]
# (§1) The effects of test samples on HIF-1 target gene expression were assessed in T47D cells. To determine the levels of CDKN1A and VEGF mRNA, quantitative real-time RT-PCR was performed as described. To determine the levels of cellular and secreted VEGF proteins, T47D cells were exposed to compounds as described, the levels of VEGF proteins in the conditioned medium and cell lysate samples determined by ELISA [21], the amount of proteins in the cell lysate samples quantified using a micro BCA assay kit (Thermo Fisher Scientific, Rockford, IL, USA), and the level of VEGF proteins normalized to that of cellular proteins.
# VEGF protein = assay: ELISA of cellular and secreted VEGF proteins in T47D cells; assay type: cell-based, human; details: normalized to cellular proteins
# Text: Around 100 genes have been identified as HIF-1 target genes that encode proteins involved in various aspects of cellular physiology. While most of these genes are regulated in a cell type-specific manner, some are induced upon HIF-1 activation in most cell types. Based on availability and potency, compound 4 (a stereoisomer of 2) was selected for follow-up studies. The effects of 4 on the expression of HIF-1 target genes cyclin dependent kinase inhibitor 1A (CDKN1A) and vascular endothelial growth factor A (VEGFA) were examined by quantitative real time RT-PCR (Figure 2). The HIF-1 activator 1,10-phen (10 μM) and the pan-HDAC inhibitor TSA (0.1 and 1 μM, respectively) were included as positive controls. In T47D cells, 4 and TSA each increased the levels of CDKN1A mRNA in a concentration-dependent manner (2.9-fold for 4 at 10 μM and 7.2-fold for TSA at 1 μM, Figure 2A). In contrast, neither 4 nor TSA exerted greater than 20% effect on the levels of VEGF mRNA (Figure 2B). The gene VEGF encodes vascular endothelial growth factor A (a potent angiogenic factor) and agents that inhibit VEGF are in clinical use for cancer. The expression of cellular and secreted VEGF proteins was examined in T47D cells by ELISA assay.
# Figure 2 Effects of 4 and trichostatin A (TSA) on HIF-1 target gene expression. T47D cells were exposed to 4 and TSA at the specified concentrations for 16 h. The compound 1,10-phen (10 µM) was included as a positive control. The levels of cyclin dependent kinase inhibitor 1A (CDKN1A) (A) and vascular endothelial growth factor (VEGF) (B) mRNA following treatments were determined by quantitative real time RT-PCR. Relative levels of target gene mRNA normalized to an internal control (18S rRNA) are shown as average ± standard deviation (n = 3, one representative experiment). The levels of cellular (C) and secreted VEGF protein (D) were determined by ELISA and normalized to the amount of cellular proteins. Data shown are average + standard deviation (n = 3). An asterisk “*” indicates p < 0.05 when compared to the media control.
# as §1
# BoM spheroids = assay: Cultrex 3D spheroid cell invasion assay; assay type: cell-based, human; details: 96 h, in comparison to the HDAC inhibitors
# Method: In order to form metastatic lesions, metastasis-initiating tumor cells must invade and intravasate into the lymphatic vasculature and/or blood vessels. Psammaplins were evaluated in a Cultrex® 3-D cell invasion assay that monitors the invasion and migration of tumor cells grown as spheroids, which closely model in vivo pathophysiological conditions.
# Figure 5 Inhibition of bone metastatic BoM cell invasion. Tumor cell spheroids formed in a special spheroid formation extracellular matrix (ECM) were embedded in an invasion matrix containing 10% fetal bovine serum (FBS) in the presence and absence of compounds at the specified concentrations. Four days later (T96), cell invasion was recorded microscopically (the bar at the bottom right represents 100 µm).
# The 3D spheroid cell invasion assay was performed using a commercial kit, following the manufacturer’s instructions (Cultrex® 3D Spheroid Cell Invasion Assay, Trevigen, Gaithersburg, MD, USA). Briefly, exponentially grown MDA-MB-231, LM, BoM, and BrM cells were trypsinized, collected, and resuspended in serum-free DMEM/F12 media. For spheroid formation, 3000 cells were added in a volume of 50 µL serum-free DMEM/F12 media with 1× spheroid formation solution/well into a pre-cooled 96-well plate. The plate was centrifuged at 100× g for 5 min at 4 °C, incubated at 37 °C for 24 h, and the spheroids imaged using an Axiovert 40 CFL microscope (Zeiss, Oberkochen, Germany). The plate was placed on ice, the invasion mix added in a volume of 50 µL/well, centrifuged at 350× g for 5 min at 4 °C, and incubated at 37 °C for 1 h. Test compounds and controls were diluted to two times the final concentrations in DMEM/F12 media supplemented with FBS (10%) and antibiotics, and added in a volume of 100 µL/well. The incubation continued for another 4 days at 37 °C and the cells/spheroids imaged (T96).
# HIF-1 = assay: T47D cell-based reporter assay (pHRE-luc) for HIF-1 activity; design: species or system human; details: for HIF-1 activation (highest level): T47D pHRE-luc, 16 h, no stimulus, n = 3; for normalized ratio of pHRE-luc/pGL3-control: T47D
# Method: Cellular adaptation to hypoxia (low oxygen tension) is primarily mediated via the transcription factor hypoxia-inducible factor-1 (HIF-1), that regulates oxygen homeostasis by activating the expression of genes that increase oxygen availability and those that decrease oxygen consumption. […] In a T47D cell-based reporter assay, a lipid extract sample of the sponge Dendrilla lacunosa activated HIF-1 by 3.56-fold (NIH collection No. C025691, 10 μg mL^−1). Bioassay-guided fractionation of the extract sample (2.6 g) and chemical structure elucidation afforded five known compounds psammaplin E (1), (E,Z)-psammaplin A (2), (E,E)-psammaplin K (3), (E,E)-psammaplin A (4), and bisaprasin (5). To determine the effects of 1–5 on HIF-1 activity, concentration-response studies were performed in a T47D cell-based reporter assay (Figure 1B). An iron chelator (1,10-phenanthroline, 10 μM) was included as a positive control. Compounds 1–4 activated HIF-1 in a biphasic manner. […] Hypoxia (1% O2) and chemical hypoxia (iron chelators or transition metals) represent two common stimuli that activate HIF-1 [24, 25, 26]. Further studies were performed to determine the effects of 1–5 on HIF-1 activity in the presence of other stimuli (1,10-phenanthroline, Figure 1C; hypoxia, Figure 1D). While 1–4 acted synergistically with 1,10-phenanthroline and hypoxia to activate HIF-1, a biphasic pattern of activation similar to that in the absence of stimulus […] was observed. […] Previous studies reported that psammaplins inhibit histone deacetylase (HDAC) enzymes. To determine if HDAC inhibition non-specifically activates HIF-1, concentration-response studies were conducted in T47D cells transfected with the pGL3-control plasmid. […] One possible scenario is that these compounds incur significant amount of cellular stress at higher concentrations, leading to the inhibition of gene expression in general.
# Figure 1 Concentration-dependent biphasic effects of 1–4 on HIF-1 activation. (A) Structures of psammaplins isolated from Dendrilla lacunosa. (B) Concentration-response results of 1–5 in T47D cells transfected with pHRE-luc for HIF-1 activity. Test compounds were added at the increasing concentrations of 0.1, 0.3, 1, 3, 10, and 30 µM, as specified. The positive control 1,10-phenanthroline (1,10-phen) was used at 10 µM. Data shown are average ± standard deviation (n = 3). (C) Similar to described in (B) except that the pHRE-luc transfected T47D cells were exposed to test compounds in the presence of 10 µM 1,10-phen, and the data were normalized to the positive control (1,10-phen). (D) Similar to described in (C) except that hypoxic exposure (1% O2: 5% CO2: 94% N2, 16 h) was applied in place of 1,10-phen. (E) As described in (B) except that T47D cells were transfected with the pGL3-control construct. An asterisk “*” indicates p < 0.05 when compared to the controls (“Media” for B, D, and E; and “1,10-phen” for C).
# To monitor HIF-1 activity, T47D cells were transfected with the pHRE3-TK-Luc construct and the cell-based luciferase reporter assay was performed as described. Cells were exposed to test compounds in the absence and presence of 1,10-phenanthroline (10 μM) or hypoxic conditions (1% O2: 5% CO2: 94% N2) for 16 h. The cells were lysed and luciferase activity determined with a commercial kit (Promega, Madison, WI, USA). For the cell-based control reporter assay, T47D cells were transfected with the pGL3-control construct (Promega, Madison, WI, USA), exposed to test compounds for 16 h, and the luciferase reporter assay performed as described.
# HDAC = assay: MDA-MB-435 cell-based HDAC assay (HDAC-Glo); details: MDA-MB-435 cells, 30 min incubation, n = 6 pooled from two experiments
# Method: Test compounds were added at specified concentrations to exponentially grown cells plated in 96-well plates. After 30 min incubation, the HDAC activity was determined using a commercial kit (HDAC-Glo™, Promega, Madison, WI, USA) and normalized to that of the dimethyl sulfoxide (DMSO) solvent control.
# Exponentially grown cells were seeded at the density of 5000 cells/well into 96-well plates (Corning, Corning, NY, USA) and incubated overnight. Compounds dissolved in DMSO were added to achieve the specified final concentrations (total volume: 100 μL, DMSO: 0.5%). The incubation continued for 30 min at 37 °C and the HDAC activity determined using a commercial luminescent assay (HDAC-Glo™, Promega, Madison, WI, USA).
compound,measurement,setting,value
"c1cnc2c(c1)ccc1cccnc12 [1,10-phen, 1,10-phenanthroline]","VEGF expression, mRNA",VEGF mRNA,induced VEGF expression
same,"VEGF expression, cellular protein",VEGF protein,induced VEGF expression
same,"VEGF expression, secreted protein",VEGF protein,induced VEGF expression
"C[C@@H]1C[C@@H]([C@H](O)CC2CC(=O)NC(=O)C2)C(=O)[C@@H](C)C1 [CHX, cycloheximide]",size of the spheroids,BoM spheroids,more pronounced decrease in the size of the spheroids
"NC(=O)C(=O)NCCSSCCNC(=O)/C(Cc1ccc(O)c(Br)c1)=N/O [Compound 1, psammaplin E]",HIF-1 activation (highest level),HIF-1; 10 μM,12.01 ± 1.12 fold
same,normalized ratio of pHRE-luc/pGL3-control,HIF-1; 10 μM,2.64 fold
same,IC50,HDAC,0.257 µM
"O=C(NCCSSCCNC(=O)C(Cc1ccc(O)c(Br)c1)=NO)C(Cc1ccc(O)c(Br)c1)=NO [Compound 2, (E,Z)-psammaplin A]",HIF-1 activation (highest level),HIF-1; 3 μM,12.32 ± 0.70 fold
same,normalized ratio of pHRE-luc/pGL3-control,HIF-1; 3 μM,2.38 fold
same,IC50,HDAC,0.019 µM
